Measurements from patent US9073854B2, “Aromatic sulfonium salt compound” (ADEKA CORPORATION, priority 2009, dated 2015).

Assay: Solubility in polyvinylphenol/tetramethylammonium hydroxide (TMAH) aqueous solution
Type: physicochemical
Conditions: mass ratio of compound to polyvinylphenol of the saturated solution; polyvinylphenol in 3% TMAH aqueous solution
Experimental: In a screw-top tube were put 0.36 g of polyvinylphenol (S-2P from Maruzen Petrochemical Co., Ltd.; Mw: 5800) and 10.00 g of a 3% TMAH aqueous solution and heated to dissolve. A 2.00 g portion of the resulting solution was put in another screw-top tube, and a small amount of each of compound Nos. 1 and 5 and comparative compound No. 1 (intermediate No. 7 obtained in step 1 of Example 1-7) was added thereto and heated. A visual check was made to see whether the compound dissolved. This operation was repeated until saturation. The saturated solution was allowed to stand one day to make sure that no solid precipitated. The mass ratio of each compound to the polyvinylphenol of the saturated solution was taken as a parameter of solubility.

Point of comparison: `Cn1c2ccccc2c(=O)c2cc([S+](c3ccc(O)cc3)c3ccc(O)cc3)ccc21` [Compound No. 1], “Solubility (%)” value 70%. Against it:
- O=c1c2ccccc2n(Cc2cccc(O)c2)c2ccc([S+](c3ccc(F)cc3)c3ccc(F)cc3)cc12 [Compound No. 5] — lower, 29%
- Cn1c2ccccc2c(=O)c2cc([S+](c3ccc(F)cc3)c3ccc(F)cc3)ccc21 [Comp. Compound No. 1, reference compound] — lower, < 1%
